The text below walks through data of US20230015647A1, “INHIBITORS OF HISTONE DEMETHYLASES (PFI-63 AND PFI-90) FOR THE TREATMENT OF CANCER AND FOR THE INHIBITION OF HISTONE DEMETHYLASE IN CELLS” (The United States of America,as represented by the …, priority 2019, published 2023).

The subject of assay [1] is PAX3-FOXO1 fusion transcription factor. As to the kind of experiment: RH4 ALK-Luc luciferase reporter assay (PAX3-FOXO1 super enhancer activity). The note with it: for Avg Absorbance @ 1 μM, ALK-Luc / Avg Absorbance @ 10 μM, ALK-Luc: RH4 ALK-Luc reporter. The assay is classed as cell-based, human. The method, then:
The screen was performed using two derivatives of RH4 FP-RMS cells: • (1) “ALK-Luc cells”—RH4 cells expressing a pGreenFire green fluorescent protein (GFP)-luciferase reporter (SEQ ID NO: 1) controlled by the PAX3-FOXO1-dependent intronic ALK super enhancer (for reporting on PAX3-FOXO1 activity) (FIGS. 1 and 2); and • (2) “CMV-Luc cells”—control RH4 cells in which the reporter is transcribed from a constitutively active cytomegalovirus (CMV) promoter. An Example of visualization via the ALK-Luc reporter is depicted in FIG. 3.
The cells were enriched for reporter expression levels and used for assay development. A high throughput screening assay was developed after optimization of cell seeding density, length of incubation of cells prior to and post treatment with test compounds, and effect of passaging among other factors. The screen was designed to identify compounds that suppressed PAX3-FOXO1 activity without disrupting viability (at a short time points) or general transcription. The assay simultaneously monitors the function of the PAX3-FOXO1 super enhancer (also referred to as “ALK super enhancer”), general transcriptional activity as well as cell viability.
The visual summary of the screening strategy is illustrated in FIG. 4. ALK-Luc cells were seeded in both white-walled and white-bottomed 384-well plates (Perkin Elmer, Cat #6007658) for luciferase assays and in clear 384-well plates (Perkin Elmer, Cat #6007688) for viability assay (XTT reduction) by transferring 27 μL of cell suspensions (seeding 3000 cells per well) into each well. The plates were then transferred into an incubator for 18-20 h. The CMV-Luc cells were similarly seeded into white plates and incubated.
A pure compound library of 62,643 compounds consisting of synthetic and natural products described previously (Grohar et al., J Natl. Cancer Inst., 103: 962-978 (2011)) was then used in a high throughput screening campaign to identify inhibitors of PAX3-FOXO1. Stock DMSO Solutions of these compounds were used to prepare 100 μM solutions in growth medium in 384-well plates also containing 16 wells each of a positive control (Actinomycin D, Sigma, Cat #A1410) and negative control (DMSO). Screening compounds along with the positive and negative controls were added to assay plates by transferring 3 μL of the prepared 100 μM dilutions using an automated liquid handler (Agilent, Bravo). Treated plates were incubated for 24 h. At the end of this period, treated plates were allowed to equilibrate to room temperature for 30 minutes. SteadyLite Plus luciferase assay reagent powder (PerkinElmer, Cat #6066759) was reconstituted in its buffer in parallel and was also allowed to equilibrate to room temperature.
After transferring 30 μL of the luciferase assay reagent using a liquid handler, plates were further incubated at room temperature for 10 minutes. Finally, luminescence measurements were carried out using a multi-label microplate reader (BMG, Pherastar FSX) set in luminescence mode. Cell viability was assessed by adding XTT reagent (10 μL per well) in clear plates containing treated ALK-Luc cells. XTT treated plates were read using a plate reader in absorbance mode at 450 nm (PerkinElmer, Envision) after further incubation for 1 hour to allow cells to metabolize XTT to a colored formazan product. Luminescence and XTT absorbance values were normalized to the average of the negative controls on each plate and were calculated as a percentage of these controls. Performance of the screening assay was routinely monitored via calculation of Z-factor (Zhang et al., J. Biomol. Screen., 4: 67-73 (1999)) with Z′ for all plates found to be >0.7.
RH4 ALK-Luc and RH4 CMV-Luc cells were seeded into separate white-walled and bottomed 384-well plates and were incubated and treated with screen hits and epigenome compounds. The highest test concentration of these compounds (10-fold) were prepared from DMSO stock solutions via dilution in medium. […]

The target in a further assay is T1, KDM3B (JMJD1B) (Homo sapiens, UniProt Q7LBC6).
T1 construct: The enzymatic activity of each of the full length protein was analyzed using known substrates; purchased Eurofins
T1 sequence (Q7LBC6 whole entry): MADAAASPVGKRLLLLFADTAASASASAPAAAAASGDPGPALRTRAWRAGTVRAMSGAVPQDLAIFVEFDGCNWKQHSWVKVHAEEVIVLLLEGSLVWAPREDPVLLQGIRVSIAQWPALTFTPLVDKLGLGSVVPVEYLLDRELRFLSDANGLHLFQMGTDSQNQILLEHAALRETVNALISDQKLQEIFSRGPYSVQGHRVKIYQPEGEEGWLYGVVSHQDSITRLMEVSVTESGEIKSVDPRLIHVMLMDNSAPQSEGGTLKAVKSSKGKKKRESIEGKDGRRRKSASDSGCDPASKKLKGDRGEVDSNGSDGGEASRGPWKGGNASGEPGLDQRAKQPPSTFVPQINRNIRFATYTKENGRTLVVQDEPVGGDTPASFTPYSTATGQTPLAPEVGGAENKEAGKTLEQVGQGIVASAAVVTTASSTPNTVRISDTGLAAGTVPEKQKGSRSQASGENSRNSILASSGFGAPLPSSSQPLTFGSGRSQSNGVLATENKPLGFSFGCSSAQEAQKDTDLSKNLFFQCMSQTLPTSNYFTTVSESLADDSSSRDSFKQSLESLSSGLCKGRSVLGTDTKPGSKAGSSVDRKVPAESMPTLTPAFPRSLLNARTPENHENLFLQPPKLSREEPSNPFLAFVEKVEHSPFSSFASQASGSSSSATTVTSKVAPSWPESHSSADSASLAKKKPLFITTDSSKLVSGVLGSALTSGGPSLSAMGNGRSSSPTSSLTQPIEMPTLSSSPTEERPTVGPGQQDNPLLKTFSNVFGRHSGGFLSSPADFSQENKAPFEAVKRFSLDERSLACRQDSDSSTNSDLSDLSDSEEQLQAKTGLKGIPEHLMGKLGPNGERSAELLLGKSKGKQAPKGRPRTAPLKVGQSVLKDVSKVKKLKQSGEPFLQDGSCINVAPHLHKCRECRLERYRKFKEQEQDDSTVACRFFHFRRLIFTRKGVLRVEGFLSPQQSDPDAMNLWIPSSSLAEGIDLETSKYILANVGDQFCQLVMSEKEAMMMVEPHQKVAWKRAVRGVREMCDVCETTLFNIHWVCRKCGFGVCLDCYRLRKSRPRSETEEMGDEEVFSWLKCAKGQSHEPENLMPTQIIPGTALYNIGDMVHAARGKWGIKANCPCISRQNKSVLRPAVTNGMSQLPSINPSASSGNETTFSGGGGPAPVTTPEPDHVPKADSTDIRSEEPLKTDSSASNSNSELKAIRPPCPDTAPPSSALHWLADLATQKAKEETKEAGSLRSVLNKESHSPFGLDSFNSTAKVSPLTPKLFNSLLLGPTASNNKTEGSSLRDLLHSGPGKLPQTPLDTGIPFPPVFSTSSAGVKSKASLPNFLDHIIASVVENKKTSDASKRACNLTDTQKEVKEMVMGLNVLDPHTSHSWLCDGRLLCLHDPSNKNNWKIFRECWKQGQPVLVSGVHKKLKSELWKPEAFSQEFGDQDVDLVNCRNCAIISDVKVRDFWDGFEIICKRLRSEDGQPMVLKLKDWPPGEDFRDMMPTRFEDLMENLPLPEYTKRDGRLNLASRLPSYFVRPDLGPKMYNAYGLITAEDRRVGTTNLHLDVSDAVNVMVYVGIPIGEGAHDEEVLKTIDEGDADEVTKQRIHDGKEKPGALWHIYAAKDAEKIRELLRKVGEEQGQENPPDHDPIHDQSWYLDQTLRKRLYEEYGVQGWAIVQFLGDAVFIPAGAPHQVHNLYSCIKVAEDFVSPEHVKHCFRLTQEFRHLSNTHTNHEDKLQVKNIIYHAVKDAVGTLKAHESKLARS
Briefly: Eurofins histone lysine demethylase panel, enzymatic inhibition, substrate H3K9me1/2(3). The assay is classed as biochemical. The note with it: KDM3B (JMJD1B) enzymatic activity. The method, then: PFI-63 was sent to Eurofins (www.eurofins.com) for direct enzymatic inhibition activity analysis. The enzymatic activity of each of the full length protein was analyzed using known substrates such as methylated lysines. The proteins were treated with various concentrations of PFI-63. As described above, PFI-90 inhibitory activity was determined by Eurofins using enzymatic inhibition activity analysis of a panel of histone demethylases.

In assay [2] the test system is truncated KDM3B catalytic domain. Briefly: 1D 1H NMR chemical shift perturbation. The assay is classed as binding. The note with it: 300 uM PFI-90, 12 uM protein, with or without 100 uM 2-OG. An excerpt:
For reference, FIG. 63 depicts NMR peaks for PFI-90. While the peaks are complex, all relevant peaks are clearly resolved. FIG. 64 depicts NMR peaks obtained for […] (also called 2-oxoglutaric acid or “2-OG”), a substrate of histone demethylases. 2-OG peaks are easily resolved. FIG. 65 depicts results from a 1D 1H analysis of PFI-90.

For assay [3] the test system is unchanged. As to the kind of experiment: CPMG relaxation editing NMR binding assay. From the text: A WaterLOGSY assay and a Carr-Purcell Meiboom-Gill (CPMG) based assay were used to investigate protein-ligand binding affinity between PFI-90 and a truncated KDM3B catalytic domain.
CPMG (Carr-Purcell-Meiboom-Gill) Relaxation Editing Proton NMR is another drug-discovery NMR experiment that may be used in conjunction with WaterLOGSY to orthogonally validate the presence of a reversible binding interaction of mild to high affinity from a small molecule to a label-free target. In contrast to WaterLOGSY, all peaks are phased above the X-axis. Instead, this experiment filters out the proportion of peak height that is contributed from the quantity of small molecule bound to a target of high molecular weight (e.g., a protein). Once the attenuation of peak height is equivalent to a 20% reduction, the compound is said to bind, with an increasing ratio of bound to unbound small molecules manifesting in increasing signal attenuation.

For assay [4], the system named is NCI-60 cancer cell line panel. Briefly: NCI-60 cancer cell line panel, percentage growth. The assay is classed as cell-based, human. As for the experimental part:
This example describes the testing of PFI-90 against the NCI-60 panel. The NCI-60 cancer cell line panel is a collection of 60 human cancer cell lines maintained by the National Cancer Institute (see Shoemaker et al., Nat. Rev. Cancer, 6: 813-823 (2006)). Briefly, the percentage growth of the cancer cells lines was measured in the presence of PFI-90 at various concentrations.

Entries after “also recorded” stand apart in the source; their conditions may differ.

For orientation: IC50 means the concentration needed to halve the response being measured. Read a high IC50 as a need for much substance. For the compound `Cc1cc(C)cc(C(=O)NNC(=O)c2ccccn2)c1` [PFI-63], in assay [1], the “suppression of PAX3-FOXO1 super enhancer activity” value was “significant suppression”; the “Avg Absorbance @ 1 μM, ALK-Luc” value worked out at 91.4; the “Avg Absorbance @ 10 μM, ALK-Luc” value is reported as 40.1. The half-inhibitory concentration (IC50) at KDM3B (JMJD1B) was in the range of 2000 to 3000 nM.

On to `O=C(NNc1ccccn1)c1ccccn1` [PFI-90], for which the “Avg Absorbance @ 1 μM, ALK-Luc” value in assay [1] was 55.9. The “Avg Absorbance @ 10 μM, ALK-Luc” value in assay [1] worked out at 34.0. Also, in assay [2], the “chemical shift perturbation upon addition of truncated KDM3B catalytic domain” value is listed as “not influences by 2-OG presence; also recorded: not influenced by the presence of 2-OG”. Moreover, the “peak height attenuation (CPMG)” value in assay [3] (1 of 9 peaks) is listed as 70%; in assay [3] (3 of 9 peaks), 50%; in assay [3] (5 out of 9 PFI-90 peaks), “Complete/near complete”. Besides, the “binding (CPMG)” value in assay [3] (in the presence and absence of 2-OG) was “Strong binding”. Also, the cell growth entry is “inhibits cell growth” in assay [4] (CNS cancer cell lines); “inhibits cell growth” in assay [4] (breast cancer cell lines); “inhibits cell growth” in assay [4] (colon cancer cell lines); “slows and/or stops the growth of the cells; also recorded: inhibits cell growth” in assay [4] (leukemia cell lines); “inhibits cell growth” in assay [4] (melanoma cell lines); “inhibits cell growth” in assay [4] (non-small cell lung cancer cell lines). The cell growth result in assay [4] (ovarian cancer cell lines) is “inhibits cell growth”; in assay [4] (prostate cancer cell lines), “inhibits cell growth”; in assay [4] (renal cancer cell lines), “inhibits growth and leads to cell death; also recorded: inhibits cell growth and induces cell death”.
